Test results from ChEMBL document CHEMBL2311449, “Synthesis and evaluation of diphenylphosphinic amides and diphenylphosphine oxides as inhibitors of Kv1.5” (Bioorg Med Chem Lett, 2013).
pIC50: −log10 of the molar value. ≈ marks a conversion by molar mass, not a printed value.

What was measured:
[1] = target: Voltage-gated inwardly rectifying potassium channel KCNH2 (Homo sapiens, UniProt Q12809)
[2] = target: Potassium voltage-gated channel subfamily A member 5 (Homo sapiens, UniProt P22460); assay: Inhibition of human Kv1.5 channel expressed in CHO cells by high throughput planar patch clamp assay; assay type: cell-based
Potassium voltage-gated channel subfamily A member 5, sequence (P22460 whole entry): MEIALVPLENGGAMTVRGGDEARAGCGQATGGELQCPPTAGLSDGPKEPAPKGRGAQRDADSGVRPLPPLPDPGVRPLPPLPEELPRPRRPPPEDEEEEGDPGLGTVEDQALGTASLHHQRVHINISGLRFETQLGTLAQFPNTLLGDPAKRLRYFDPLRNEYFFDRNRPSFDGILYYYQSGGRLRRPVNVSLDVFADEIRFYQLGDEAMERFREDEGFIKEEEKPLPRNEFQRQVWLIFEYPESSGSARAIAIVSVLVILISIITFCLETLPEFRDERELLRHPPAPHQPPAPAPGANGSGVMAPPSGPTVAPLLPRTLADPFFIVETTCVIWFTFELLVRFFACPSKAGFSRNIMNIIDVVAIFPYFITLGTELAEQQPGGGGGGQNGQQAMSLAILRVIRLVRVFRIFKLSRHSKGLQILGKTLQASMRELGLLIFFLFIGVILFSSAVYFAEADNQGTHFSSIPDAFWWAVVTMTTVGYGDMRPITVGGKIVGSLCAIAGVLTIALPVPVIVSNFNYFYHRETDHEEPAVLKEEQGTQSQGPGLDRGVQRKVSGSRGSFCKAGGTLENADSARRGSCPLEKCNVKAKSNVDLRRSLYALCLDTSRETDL

[3] = target: Intermediate conductance calcium-activated potassium channel protein 4 (Homo sapiens, UniProt O15554); assay: Inhibition of IK channel (unknown origin)
Intermediate conductance calcium-activated potassium channel protein 4, sequence (O15554 whole entry): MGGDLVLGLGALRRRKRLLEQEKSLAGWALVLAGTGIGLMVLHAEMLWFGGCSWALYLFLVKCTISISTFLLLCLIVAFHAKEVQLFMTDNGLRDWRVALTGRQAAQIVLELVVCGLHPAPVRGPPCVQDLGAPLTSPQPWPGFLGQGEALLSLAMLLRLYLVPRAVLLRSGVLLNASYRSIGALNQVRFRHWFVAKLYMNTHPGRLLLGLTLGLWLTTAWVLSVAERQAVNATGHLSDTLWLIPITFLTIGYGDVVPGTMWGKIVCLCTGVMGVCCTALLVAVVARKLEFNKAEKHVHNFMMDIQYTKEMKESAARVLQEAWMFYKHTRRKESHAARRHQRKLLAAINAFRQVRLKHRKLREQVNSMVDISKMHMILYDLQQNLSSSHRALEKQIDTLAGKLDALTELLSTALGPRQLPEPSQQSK

Oryctolagus cuniculus [4] = assay: Toxicity in New Zealand white rabbit assessed as CNS effect at 0.1 and 1 umol/kg/min; assay type: organism-based, Central nervous system; conditions: in vivo
Oryctolagus cuniculus [5] = species: Oryctolagus cuniculus; assay: Toxicity in New Zealand white rabbit assessed as CNS effect at plasma concentration of 3 to 4 times 20% change in atrium effective refractory period; assay type: organism-based; conditions: in vivo
Oryctolagus cuniculus [6] = assay: Increase of effective refractory period in New Zealand white rabbit assessed as maximum change in QT interval at 0.1 and 1 umol/kg/min for 15 mins infusions; assay type: functional
Plasma = assay: Unbound steady state plasma concentration in New Zealand white rabbit assessed as concentration required to 20% change in atrium effective refractory period at 0.1 and 1 umol/kg/min for 15 mins infusions; assay type: ADME, cell-free, Oryctolagus cuniculus; conditions: 0.25 h
[7] = Lipophilicity, log D of compound at pH 7.4; assay type: physicochemical; conditions: buffer
[8] = Solubility of the compound at pH 7.4; assay type: physicochemical; conditions: buffer
[9] = Apparent permeability of the compound in human Caco2 cells; assay type: ADME, cell-based; conditions: Caco-2
[10] = Intrinsic clearance in human liver microsomes; assay type: ADME, Microsome; conditions: read-out: CLH
[11] = Clearance in rat; assay type: ADME, organism-based; conditions: in vivo
[12] = Oral bioavailability in rat; assay type: ADME, organism-based; conditions: in vivo

Voltage-gated inwardly rectifying potassium channel KCNH2, sequence (Q12809 whole entry): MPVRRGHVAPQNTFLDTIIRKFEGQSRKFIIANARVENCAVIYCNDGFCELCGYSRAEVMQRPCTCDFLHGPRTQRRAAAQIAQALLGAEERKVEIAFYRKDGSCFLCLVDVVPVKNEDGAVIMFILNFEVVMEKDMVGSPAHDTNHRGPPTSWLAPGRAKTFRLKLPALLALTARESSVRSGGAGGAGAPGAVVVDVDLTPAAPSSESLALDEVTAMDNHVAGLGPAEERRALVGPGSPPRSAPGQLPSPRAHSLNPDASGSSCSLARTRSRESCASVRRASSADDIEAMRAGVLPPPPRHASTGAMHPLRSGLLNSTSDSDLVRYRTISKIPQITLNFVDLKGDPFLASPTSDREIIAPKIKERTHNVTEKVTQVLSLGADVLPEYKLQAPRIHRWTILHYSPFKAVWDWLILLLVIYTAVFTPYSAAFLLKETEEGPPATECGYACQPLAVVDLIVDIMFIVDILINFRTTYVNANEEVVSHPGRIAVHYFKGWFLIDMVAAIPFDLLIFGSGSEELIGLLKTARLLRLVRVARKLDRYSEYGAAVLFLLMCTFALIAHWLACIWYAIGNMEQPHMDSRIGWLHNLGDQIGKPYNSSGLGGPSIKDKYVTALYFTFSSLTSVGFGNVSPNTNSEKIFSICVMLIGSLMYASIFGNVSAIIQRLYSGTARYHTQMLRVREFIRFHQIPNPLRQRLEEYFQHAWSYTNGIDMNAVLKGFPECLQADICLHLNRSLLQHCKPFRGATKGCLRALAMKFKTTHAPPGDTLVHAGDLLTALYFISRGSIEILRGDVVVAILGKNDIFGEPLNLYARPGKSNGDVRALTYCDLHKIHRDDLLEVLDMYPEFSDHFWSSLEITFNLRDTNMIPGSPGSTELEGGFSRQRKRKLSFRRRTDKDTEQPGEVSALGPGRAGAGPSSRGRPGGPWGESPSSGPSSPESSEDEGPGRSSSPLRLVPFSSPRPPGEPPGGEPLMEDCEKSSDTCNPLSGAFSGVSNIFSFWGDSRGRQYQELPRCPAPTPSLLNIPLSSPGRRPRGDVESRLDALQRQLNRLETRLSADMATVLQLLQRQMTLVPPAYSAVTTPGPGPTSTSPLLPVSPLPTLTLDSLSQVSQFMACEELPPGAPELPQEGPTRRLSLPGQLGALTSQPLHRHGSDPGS

Row | SMILES | pIC50 [1] | pIC50 [2] | pIC50 [3] | further results
1 | COc1ccc(-c2ncccc2NP(=O)(c2ccccc2)c2ccccc2)cc1 | < 4.48 | 4.77 | – | –
2 | CCCN(c1cccc(C#N)c1)P(=O)(c1ccccc1)c1ccccc1 | < 4.48 | 6.70 | 5.57 | –
3 | N#Cc1cccc(-c2ncccc2CNP(=O)(c2ccccc2)c2ccccc2)c1 | – | 6.27 | 5.11 | Activity (Oryctolagus cuniculus [4]): Toxic
4 | O=P(NCc1cccnc1-c1cccnc1)(c1ccccc1)c1ccccc1 | – | 5.57 | 4.48 | –
5 | O=P(Nc1cc(F)ccc1-n1cccn1)(c1ccccc1)c1ccccc1 | < 4.48 | 5.39 | 5.11 | –
6 | O=P(c1ccccc1)(c1ccccc1)N(Cc1ccccn1)Cc1ccccn1 | < 4.48 | 5.89 | < 4.48 | Activity (Oryctolagus cuniculus [4]): Toxic
7 | O=P(NCc1ccccc1-c1cccnc1)(c1ccccc1)c1ccccc1 | < 4.48 | 5.64 | < 4.48 | –
8 | O=P(c1ccccc1)(c1ccccc1)C(c1ccccc1)c1cccnc1 (racemic) | – | 7.00 | 6.30 | –
9 | O=P(NCc1cccnc1-c1cccc(Cl)c1)(c1ccccc1)c1ccccc1 | – | 6.48 | 5.31 | –
10 | O=P(c1ccccc1)(c1ccccc1)C(c1cccnc1)N1CCCCC1 (racemic) | – | 6.85 | 5.74 | –
11 | CCCN(c1cncnc1)P(=O)(c1ccccc1)c1ccccc1 | – | 6.00 | < 4.48 | Activity (Oryctolagus cuniculus [5]): Toxic; Activity (Oryctolagus cuniculus [6]): <10%; Cp(f)ss (Plasma): 600 nM
12 | O=P(c1ccccc1)(c1ccccc1)C(c1cccnc1)c1cccnc1 | – | 6.74 | 6.00 | –
13 | O=P(Nc1cccnc1)(c1ccccc1)c1ccccc1 | < 4.48 | < 4.52 | – | –
14 | O=P(NCc1cccnc1-c1cc(Cl)cc(Cl)c1)(c1ccccc1)c1ccccc1 | – | 7.10 | 4.89 | –
15 | CCCN(c1cccc(S(C)(=O)=O)c1)P(=O)(c1ccccc1)c1ccccc1 | < 4.48 | 6.03 | < 4.48 | Activity (Oryctolagus cuniculus [4]): Toxic
16 | CCCNC(c1cccnc1)P(=O)(c1ccccc1)c1ccccc1 (racemic) | – | 6.12 | 4.85 | –
17 | COCCN(c1cccnc1)P(=O)(c1ccccc1)c1ccccc1 | < 4.48 | 6.21 | < 4.48 | –
18 | CC(C)[C@@H]1CC[C@@H](C)C[C@@H]1P(=O)(c1ccccc1)c1ccccc1 | – | – | – | logD [7]: 6
19 | N#CCCCN(c1cccnc1)P(=O)(c1ccccc1)c1ccccc1 | < 4.48 | 5.72 | 4.51 | –
20 | O=P(c1ccccc1)(c1ccccc1)N(c1cccnc1)c1cccnc1 | – | 5.80 | – | –
21 | c1ccc([C@H]([C@@H](c2ccccc2)N2CCCCC2)N2CCCCC2)cc1 | – | 5.77 | – | –
22 | O=P(c1ccccc1)(c1ccccc1)N(Cc1ccccn1)c1cccnc1 | < 4.48 | 6.28 | 5.00 | Activity (Oryctolagus cuniculus [4]): Toxic
23 | CCCN(c1cccnc1)P(=O)(c1ccccc1)c1ccccc1 | < 4.48 | 6.92 | 4.85 | logD [7]: 2.6; Activity (Oryctolagus cuniculus [5]): Toxic; solubility [8]: 91 µM (≈ 30.6 µg/mL); Papp [9]: 30 ×10⁻⁶ cm/s; microsomal CLint [10]: 158 µL/min/mg; Activity (Oryctolagus cuniculus [6]): 23%; clearance [11]: 11 mL/min/kg; Cp(f)ss (Plasma): 800 nM; bioavailability [12]: 55%
